pIC50: −log10 of the molar value.
What was measured:
[1] = target: CYP2C19 (Homo sapiens, UniProt P33261); assay: Cytochrome P450 inhibition in human liver microsomes
Procedure: (§1) Preparation of positive control inhibitor and compound working solution: 16 µL inhibitor stock solution or compound stock solution for each CYP subtype were taken and added to 24 µL DMSO. Then, they were diluted gradually three times with diluent to obtain different concentrations of test sample/positive control inhibitor working solution (7 concentrations each except for blank)
(§2) Preparation of test sample group working solution: The human liver microsomal working solution was divided into 96 well plates at 796 µL per well, and then 4 µL test sample working solution was added.
(§3) Preparation of positive control group working solution: The human liver microsomal working solution was divided into 96 well plates at 199 µL per well, and then 1 µL positive control inhibitor working solution was added.
(§4) Blank solvent working solution preparation: The human liver microsomal working solution was divided into 96 well plates at 199 µL per well, and then 1 µL DMSO was added.
(§5) (a) 30 µL test sample/positive control inhibitor working solution or 30 µL blank solvent working solution per well were transferred into a 96 well plate, and 15 µL substrate working solution of different enzyme subtypes transferred into each well, and mixed evenly. (b) The above incubation plates and 4 x NADPH working solution were preheated at 37 °C for 5 min. (c) 15 µL preheated 4 × NADPH working solution per well was transferred into the incubation plate, and the reaction initiated, and continued to be incubated at 37 °C.
(§6) (d) After the reaction time was reached, 180 µL termination solution was added to terminate the reaction. […] (f) After centrifugation, 80 µL supernatant was taken and added to 120 µL ultrapure water, and after it was mixed evenly, LC-MS/MS was used to analyze the metabolites of the probe substrate.

[2] = Pharmacokinetic test in rats; type: in vivo, male SD rats; settings: rat, plasma, oral gavage administration, 10 mg/kg
How it was run: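 Male SD rats (180-220 g, fasted overnight, n=3 per route) received 10 mg/kg by oral gavage or 1 mg/kg intravenously. Plasma was sampled from 5 min to 24 h post-dose and analysed by LC-MS/MS after protein precipitation. Parameters came from non-compartmental analysis.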

[3] = target: T1, CYP1A2 (Homo sapiens, UniProt P05177); assay: Cytochrome P450 inhibition in human liver microsomes
T1 sequence (P05177 1-516): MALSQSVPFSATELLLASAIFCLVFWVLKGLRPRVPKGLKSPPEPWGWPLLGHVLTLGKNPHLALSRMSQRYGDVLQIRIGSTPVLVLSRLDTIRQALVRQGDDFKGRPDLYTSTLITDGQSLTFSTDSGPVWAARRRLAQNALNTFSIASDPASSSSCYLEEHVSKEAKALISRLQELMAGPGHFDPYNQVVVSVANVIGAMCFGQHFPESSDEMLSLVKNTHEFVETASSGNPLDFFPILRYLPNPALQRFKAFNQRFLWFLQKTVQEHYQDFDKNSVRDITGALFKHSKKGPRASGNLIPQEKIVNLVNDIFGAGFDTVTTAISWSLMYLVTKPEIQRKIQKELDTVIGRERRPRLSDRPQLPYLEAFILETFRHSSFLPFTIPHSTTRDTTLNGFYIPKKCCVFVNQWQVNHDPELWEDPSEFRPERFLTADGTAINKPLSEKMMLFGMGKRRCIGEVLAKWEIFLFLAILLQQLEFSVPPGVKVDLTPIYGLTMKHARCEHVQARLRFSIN
Procedure: as §1, §2, §3, §4, §5, §6

[4] = target: hERG (Homo sapiens, UniProt Q12809); assay: Manual patch clamp, hERG channel current in HEK-293 cells
Procedure: The test compound diluents were diluted with extracellular fluid containing 0.5% F68 in sequence to prepare working solutions of 30 µM, 10 µM, 3 µM, 1 µM and 0.3 µM, and 0.3% DMSO was ensured.
The test compound diluents were diluted with extracellular fluid containing 0.5% F68 in sequence to prepare working solutions with concentrations of 30 µM, 10 µM, 3 µM, 1 µM and 0.3 µM, and 0.3% DMSO was ensured.
Cells were inoculated into 6 cm cell culture dishes, with a total of 2.5 × 10^5 cells per dish (final volume: 5 mL). To maintain the electrophysiological activity of cells, the cell density must not exceed 80%.
The voltage stimulation protocol for recording hERG currents using whole cell patch clamp was as follows: when a whole cell seal was formed, the cell membrane voltage was clamped at -80 mV. […] Data was collected repeatedly every 10 s to observe the effect of the drug on hERG tail current. The experimental data was collected by IPA amplifier (Sutter Instrument) and stored in SutterPatch (with Igor Pro) software.
When the hERG current recorded by the whole cell was stabilized, administration began, and each drug concentration acted for about 5 min (or until the current was stabilized), and then the next concentration was detected, multiple concentrations were detected for each test compound. The cover glass covered with cells was placed in the recording bath under an inverted microscope, the blank control solution and the test compound working solution sequentially flowed through the recording bath from low concentration to high concentration using gravity perfusion to act on the cells, liquid exchange was performed using a peristaltic pump during recording. The current of each cell detected in the extracellular fluid without the compound serves as its own control group. Each concentration should be independently tested twice using at least two cells. All electrophysiological tests were performed at room temperature.

[5] = Rat liver cells metabolic stability; type: in vitro ADME; settings: rat liver cells 0.5 × 10^6 cells/mL
Procedure: Test compound and control drug verapamil powder were prepared into […] stock solution using DMSO, and they were diluted with 50% acetonitrile/50% water to 100 µM working solution before use.
• 1) 49.5 mL Williams E Medium and 0.5 mL glutaMAX were mixed as incubation medium. The liver cell resuscitation solution and incubation solution were preheated in a 37 °C water bath for at least 15 min before use. • 2) A tube of liver cells stored at ultra-low temperature was taken and ensured that they remain in a low-temperature frozen state before resuscitation. The liver cells were placed quickly in a 37 °C water bath and shaken gently until all ice crystals were dispersed. • 3) The contents of the liver cells tubes were poured into a centrifuge tube containing 50 mL of resuscitation medium, and they were centrifuged at 100 g for 10 min. After centrifugation, the resuscitation medium was aspirated, and sufficient incubation medium was added to obtain a cell suspension with a cell density of approximately 1.0 × 10^6 cells/mL. • 4) AO/PI staining was used to count liver cells and determine viable cell density, the survival rate of liver cells must be greater than 75%. The liver cell suspension was diluted with incubation medium to a viable cell density of 0.5 × 10^6 cells/mL.
• 1) 198 µL live cell suspension was transferred to a 96 well deep well plate, and the deep well plate was placed on a vortex and preheat in the incubator for 10 min. • 2) 2 µL 100 µM test compound or positive control compound was added to each well for reaction initiation, and the deep well plate was placed back on the incubator vortex. • 3) The incubation plate was placed into the incubator for incubation. 25 µL suspension was taken at 0.5, 15, 30, 60, 90, and 120 min, and 6-fold (150 µL) acetonitrile containing internal standard quencher (100 nM alprazolam, 200 nM caffeine, and 100 nM toluenesulfonylbutamide) was added to a new 96 well plate to terminate the reaction. The plate was vortexed for 5 min and centrifuged at 3220 rpm and 4 °C for 45 min to precipitate the protein. 100 µL of supernatant was transferred to the sample plate, and 100 µL pure water was added and mixed well for UPLC-MS/MS analysis. All incubation systems were conducted in a dual parallel manner.
All data was calculated using Microsoft Excel software. Peak area was detected by extracting ion chromatogram. In vitro half-life (T1/2) and in vitro clearance rate (in µL/min/10^6 cells) of the parent drug were detected by linearly fitting of the natural logarithm of the […] percentage of the parent drug versus time. Table 6 Results of rat liver cell stability test

[6] = target: CYP2D6 (Homo sapiens, UniProt P10635); assay: Cytochrome P450 inhibition in human liver microsomes
Procedure: as §1
(§7) Preparation of liver microsomal working solution: 300 µL human liver microsomes (20.0 mg/mL) was taken and added to 29700 µL PBS and mixed well, and the concentration of the prepared human liver microsomal working solution was 0.200 mg/mL.
(§8) Preparation of 4 x NADPH working solution: A certain weight of NADPH tetrasodium salt was weighted and dissolved to a suitable volume of PBS to obtain NADPH working solution, with a concentration of 8.00 mM.
as §2, §3, §4
(§9) (a) 30 µL test sample/positive control inhibitor working solution or 30 µL blank solvent working solution per well were transferred into a 96 well plate, and 15 µL substrate working solution of different enzyme subtypes transferred into each well, and mixed evenly. (b) The above incubation plates and 4 x NADPH working solution were preheated at 37 °C for 5 min. (c) 15 µL preheated 4 × NADPH working solution per well was transferred into the incubation plate, and the reaction initiated, and continued to be incubated at 37 °C. The incubation time is as follows:
as §6

[7] = target: CYP3A4 (Homo sapiens, UniProt P08684); assay: as above
Procedure: as §1, §7, §8, §2, §3, §4, §9, §6

[8] = target: Ba/F3-TEL-FGFR2 (Homo sapiens, UniProt P21802+P41212); assay: Cell viability (proliferation inhibition) of Ba/F3 cells, CellTiter Glo; settings: read-out: Ba/F3 cell FGFR2 (IC50 nM), 72 h
[9] = target: Ba/F3-TEL-FGFR1 (Homo sapiens, UniProt P11362+P41212); assay: as above; settings: read-out: Ba/F3 cell FGFR1 (IC50 nM), 72 h
[10] = target: CYP2C9 (Homo sapiens, UniProt P11712); assay: Cytochrome P450 inhibition in human liver microsomes
Chain of CYP2C9 (P11712 whole entry): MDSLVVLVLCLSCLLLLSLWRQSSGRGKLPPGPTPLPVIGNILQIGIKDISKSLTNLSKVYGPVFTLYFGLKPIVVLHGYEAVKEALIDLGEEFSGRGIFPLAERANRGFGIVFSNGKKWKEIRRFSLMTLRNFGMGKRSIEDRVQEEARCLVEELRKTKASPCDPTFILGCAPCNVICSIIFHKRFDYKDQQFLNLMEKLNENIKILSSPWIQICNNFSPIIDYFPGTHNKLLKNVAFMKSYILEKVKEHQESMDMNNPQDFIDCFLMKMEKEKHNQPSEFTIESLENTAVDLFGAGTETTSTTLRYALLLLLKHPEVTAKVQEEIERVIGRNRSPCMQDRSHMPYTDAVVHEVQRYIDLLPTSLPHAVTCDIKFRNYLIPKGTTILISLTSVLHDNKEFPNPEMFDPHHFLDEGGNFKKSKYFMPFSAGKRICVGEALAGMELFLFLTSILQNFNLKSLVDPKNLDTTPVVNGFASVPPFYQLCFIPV
Procedure: as §1, §2, §3, §4, §5, §6

Chain of hERG (Q12809 whole entry): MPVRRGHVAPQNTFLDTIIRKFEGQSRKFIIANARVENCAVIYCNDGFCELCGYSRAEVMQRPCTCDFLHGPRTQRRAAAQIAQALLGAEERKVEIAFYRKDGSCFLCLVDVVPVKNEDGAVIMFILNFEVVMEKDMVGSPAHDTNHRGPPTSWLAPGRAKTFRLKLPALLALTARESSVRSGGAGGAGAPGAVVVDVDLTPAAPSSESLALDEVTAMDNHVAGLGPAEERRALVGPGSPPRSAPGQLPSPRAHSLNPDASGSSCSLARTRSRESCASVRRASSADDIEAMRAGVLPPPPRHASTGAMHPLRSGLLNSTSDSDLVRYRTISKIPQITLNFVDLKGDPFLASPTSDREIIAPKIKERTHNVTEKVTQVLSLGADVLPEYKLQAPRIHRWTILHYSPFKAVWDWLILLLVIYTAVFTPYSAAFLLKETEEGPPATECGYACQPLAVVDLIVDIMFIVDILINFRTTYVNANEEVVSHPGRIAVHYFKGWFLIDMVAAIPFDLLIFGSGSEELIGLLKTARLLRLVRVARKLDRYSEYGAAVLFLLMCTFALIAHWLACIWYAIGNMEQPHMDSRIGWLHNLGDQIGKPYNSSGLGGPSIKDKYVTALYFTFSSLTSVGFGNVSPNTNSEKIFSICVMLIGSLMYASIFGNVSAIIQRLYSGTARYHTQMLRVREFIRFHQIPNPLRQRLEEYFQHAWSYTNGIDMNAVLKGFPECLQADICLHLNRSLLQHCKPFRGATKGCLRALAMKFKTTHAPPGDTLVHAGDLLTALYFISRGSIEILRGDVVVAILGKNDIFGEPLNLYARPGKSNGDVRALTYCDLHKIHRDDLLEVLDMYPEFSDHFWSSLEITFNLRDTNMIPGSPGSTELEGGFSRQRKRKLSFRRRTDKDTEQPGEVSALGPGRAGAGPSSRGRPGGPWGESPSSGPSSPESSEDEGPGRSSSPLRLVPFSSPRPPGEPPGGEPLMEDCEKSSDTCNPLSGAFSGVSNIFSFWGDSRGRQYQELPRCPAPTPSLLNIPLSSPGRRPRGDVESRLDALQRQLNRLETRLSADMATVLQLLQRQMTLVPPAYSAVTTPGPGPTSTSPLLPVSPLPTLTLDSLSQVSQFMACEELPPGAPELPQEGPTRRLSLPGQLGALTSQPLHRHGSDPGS
Chain of CYP2D6 (P10635 whole entry): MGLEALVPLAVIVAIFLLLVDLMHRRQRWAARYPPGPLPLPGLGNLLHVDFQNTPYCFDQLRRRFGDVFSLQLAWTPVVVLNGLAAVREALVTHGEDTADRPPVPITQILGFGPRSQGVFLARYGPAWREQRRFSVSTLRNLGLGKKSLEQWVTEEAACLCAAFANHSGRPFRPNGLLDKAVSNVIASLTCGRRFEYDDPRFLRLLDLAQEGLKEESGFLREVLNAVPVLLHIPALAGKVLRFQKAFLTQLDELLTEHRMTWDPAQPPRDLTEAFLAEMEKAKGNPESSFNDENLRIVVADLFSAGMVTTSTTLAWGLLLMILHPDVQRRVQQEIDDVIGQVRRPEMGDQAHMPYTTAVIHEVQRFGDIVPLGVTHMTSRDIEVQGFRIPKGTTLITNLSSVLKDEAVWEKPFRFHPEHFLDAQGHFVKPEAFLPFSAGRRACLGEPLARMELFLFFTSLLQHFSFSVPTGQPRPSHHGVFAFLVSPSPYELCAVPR
Chain of CYP3A4 (P08684 whole entry): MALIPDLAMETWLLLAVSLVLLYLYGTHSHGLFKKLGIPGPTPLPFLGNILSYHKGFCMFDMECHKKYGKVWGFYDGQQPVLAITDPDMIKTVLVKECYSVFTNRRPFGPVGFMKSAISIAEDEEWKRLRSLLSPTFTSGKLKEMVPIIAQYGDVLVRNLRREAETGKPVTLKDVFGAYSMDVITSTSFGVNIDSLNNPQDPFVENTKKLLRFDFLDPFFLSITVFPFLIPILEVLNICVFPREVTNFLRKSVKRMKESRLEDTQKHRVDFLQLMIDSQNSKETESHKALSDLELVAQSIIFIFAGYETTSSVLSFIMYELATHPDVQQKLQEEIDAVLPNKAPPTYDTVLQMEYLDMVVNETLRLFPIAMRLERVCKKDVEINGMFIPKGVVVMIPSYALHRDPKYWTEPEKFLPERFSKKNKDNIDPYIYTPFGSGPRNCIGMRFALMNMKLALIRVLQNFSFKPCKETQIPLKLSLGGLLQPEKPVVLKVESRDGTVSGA
Chain of Ba/F3-TEL-FGFR2 (P21802 481-770 limits assumed, one chain of several): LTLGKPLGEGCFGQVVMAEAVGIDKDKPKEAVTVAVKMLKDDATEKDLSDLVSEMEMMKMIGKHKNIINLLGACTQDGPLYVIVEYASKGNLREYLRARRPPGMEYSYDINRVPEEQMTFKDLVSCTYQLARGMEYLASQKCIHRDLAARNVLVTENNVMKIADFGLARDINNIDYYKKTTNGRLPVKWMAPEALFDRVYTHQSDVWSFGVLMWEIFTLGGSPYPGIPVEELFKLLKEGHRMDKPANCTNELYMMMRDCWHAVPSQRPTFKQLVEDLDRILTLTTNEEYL
Chain of CYP2C19 (P33261 whole entry): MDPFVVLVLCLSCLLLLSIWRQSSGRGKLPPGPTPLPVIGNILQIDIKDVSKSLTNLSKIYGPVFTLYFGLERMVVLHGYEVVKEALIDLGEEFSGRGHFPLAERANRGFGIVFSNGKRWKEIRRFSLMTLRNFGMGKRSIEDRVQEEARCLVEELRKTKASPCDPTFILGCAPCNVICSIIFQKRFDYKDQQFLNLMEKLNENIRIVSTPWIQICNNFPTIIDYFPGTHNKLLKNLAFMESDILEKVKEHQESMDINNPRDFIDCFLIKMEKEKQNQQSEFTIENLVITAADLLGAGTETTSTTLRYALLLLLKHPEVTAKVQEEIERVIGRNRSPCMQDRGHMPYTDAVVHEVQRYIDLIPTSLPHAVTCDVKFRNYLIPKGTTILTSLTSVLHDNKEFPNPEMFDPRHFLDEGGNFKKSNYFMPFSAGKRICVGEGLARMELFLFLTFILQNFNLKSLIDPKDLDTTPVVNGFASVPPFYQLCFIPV
Chain of Ba/F3-TEL-FGFR1 (P11362 478-767 limits assumed, one chain of several): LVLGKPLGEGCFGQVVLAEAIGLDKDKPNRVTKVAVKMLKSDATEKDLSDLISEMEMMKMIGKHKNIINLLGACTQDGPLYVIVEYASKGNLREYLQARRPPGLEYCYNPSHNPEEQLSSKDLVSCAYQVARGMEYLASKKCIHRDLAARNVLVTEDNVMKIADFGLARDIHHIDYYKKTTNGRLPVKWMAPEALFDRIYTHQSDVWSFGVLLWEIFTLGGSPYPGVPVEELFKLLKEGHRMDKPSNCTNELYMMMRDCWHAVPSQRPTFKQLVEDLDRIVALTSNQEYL

Q: With C=C(C)C(=O)Nc1ccc(-c2c(-c3ccc(N=S4(=O)CCCC4)cc3)c3c(N)ncnc3n2C)c(F)c1 [Compound 24] as the compound, how does the pIC50 [1] read?
A: 4.71

Q: And the AUC(0-t) [2]?
A: 871 ng·h/mL

Q: What about the Cmax [2] of the same compound?
A: 270 ng/mL

Q: And the Tmax [2]?
A: 15 min

Q: What about the half-life [2] of the same compound?
A: 85.8 min

Q: What about the pIC50 [3] of the same compound?
A: < 5.00

Q: What about the pIC50 [4] of the same compound?
A: < 5.00

Q: And the inhibition at 0.3 µM ([4]; human, hek-293 cells)?
A: -1.24%

Q: What about the inhibition at 1 µM ([4]; human, hek-293 cells) of the same compound?
A: 7.73%

Q: What about the inhibition at 3 µM ([4]; human, hek-293 cells) of the same compound?
A: 10.2%

Q: What about the inhibition at 10 µM ([4]; human, hek-293 cells) of the same compound?
A: 32.2%

Q: And the inhibition at 30 µM ([4]; human, hek-293 cells)?
A: 14.2%

Q: What about the hepatocyte CLint ([5]; hepatocytes, read-out: in vitro CLint (µL/min/10^6 cells)) of the same compound?
A: 37.1 µL/min/1e6 cells

Q: And the half-life ([5]; hepatocytes, read-out: in vitro t1/2)?
A: 37.3 min

Q: What about the “Remaining percentage of compound after 60 min of incubation (%)” value ([5]; 60 min) of the same compound?
A: 37.55%

Q: What about the pIC50 [6] of the same compound?
A: 4.85

Q: And the pIC50 [7]?
A: 4.97

Q: And the IC50 [8]?
A: 2.1 nM

Q: And the IC50 [9]?
A: 1910 nM

Q: What about the pIC50 [10] of the same compound?
A: 4.54
